Assay results as given in patent US9296757B2, “Substituted benzothienopyrimidines” (BAYER PHARMA AKTIENGESELLSCHAFT, priority 2012, dated 2016).
pIC50: −log10 of the molar value.

What follows are compounds tested against human full-length MKNK1 (Homo sapiens (Human), UniProt Q9BUB5, T344D) (assay: MKNK1 kinase high ATP assay (TR-FRET)). Settings: high ATP (2 mM final), 15 min preincubation with enzyme.
human full-length MKNK1, sequence (Q9BUB5 other isoform, or with tags, fused parts or gaps T344D): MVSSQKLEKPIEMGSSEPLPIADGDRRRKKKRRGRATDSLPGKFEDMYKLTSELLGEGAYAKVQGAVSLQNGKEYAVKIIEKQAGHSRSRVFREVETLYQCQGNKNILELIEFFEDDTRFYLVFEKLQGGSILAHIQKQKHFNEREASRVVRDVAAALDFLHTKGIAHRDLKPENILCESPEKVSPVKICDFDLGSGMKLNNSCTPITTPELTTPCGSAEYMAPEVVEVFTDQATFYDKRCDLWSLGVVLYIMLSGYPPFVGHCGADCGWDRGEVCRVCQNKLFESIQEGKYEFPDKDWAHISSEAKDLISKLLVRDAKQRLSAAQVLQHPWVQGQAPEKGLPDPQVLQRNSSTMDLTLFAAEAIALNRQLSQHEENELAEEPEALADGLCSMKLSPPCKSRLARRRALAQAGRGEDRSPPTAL
Assay type: biochemical
Protocol: MKNK1-inhibitory activity at high ATP of compounds of the present invention after their preincubation with MKNK1 was quantified employing the TR-FRET-based MKNK1 high ATP assay as described in the following paragraphs.
A recombinant fusion protein of Glutathione-S-Transferase (GST, N-terminally) and human full-length MKNK1 (amino acids 1-424 and T344D of accession number BAA 19885.1), expressed in insect cells using baculovirus expression system and purified via glutathione sepharose affinity chromatography, was purchased from Carna Biosciences (product no 02-145) and used as enzyme. As substrate for the kinase reaction the biotinylated peptide biotin-Ahx-IKKRKLTRRKSLKG (C-terminus in amide form) was used, which can be purchased e.g. from the company Biosyntan (Berlin-Buch, Germany).
For the assay 50 nL of a 100 fold concentrated solution of the test compound in DMSO was pipetted into a black low volume 384 well microtiter plate (Greiner Bio-One, Frickenhausen, Germany), 2 μL of a solution of MKNK1 in aqueous assay buffer [50 mM HEPES pH 7.5, 5 mM MgCl2, 1.0 mM dithiothreitol, 0.005% (v/v) Nonidet-P40 (Sigma)] was added and the mixture was incubated for 15 min at 22° C. to allow pre-binding of the test compounds to the enzyme before the start of the kinase reaction. Then the kinase reaction was started by the addition of 3 μL of a solution of adenosine-tri-phosphate (ATP, 3.3 mM=>final conc. in the 5 μL assay volume is 2 mM) and substrate (0.1 μM=>final conc. in the 5 μL assay volume is 0.06 μM) in assay buffer and the resulting mixture was incubated for a reaction time of 30 min at 22° C. The concentration of MKNK1 was adjusted depending of the activity of the enzyme lot and was chosen appropriate to have the assay in the linear range, typical concentrations were in the range of 0.003 μg/mL. The reaction was stopped by the addition of 5 μL of a solution of TR-FRET detection reagents (5 nM streptavidine-XL665 [Cisbio Bioassays, Codolet, France] and 1 nM anti-ribosomal protein S6 (pSer236)-antibody from Invitrogen [#44921G] and 1 nM LANCE EU-W1024 labeled ProteinG [Perkin-Elmer, product no. AD0071]) in an aqueous EDTA-solution (100 mM EDTA, 0.1% (w/v) bovine serum albumin in 50 mM HEPES pH 7.5).
The resulting mixture was incubated for 1 h at 22° C. to allow the formation of complex between the phosphorylated biotinylated peptide and the detection reagents. Subsequently the amount of phosphorylated substrate was evaluated by measurement of the resonance energy transfer from the Eu-chelate to the streptavidine-XL. Therefore, the fluorescence emissions at 620 nm and 665 nm after excitation at 350 nm were measured in a TR-FRET reader, e.g. a Rubystar (BMG Labtechnologies, Offenburg, Germany) or a Viewlux (Perkin-Elmer). The ratio of the emissions at 665 nm and at […] was taken as the measure for the amount of phosphorylated substrate. The data were normalised (enzyme reaction without inhibitor=0% inhibition, all other assay components but no enzyme=100% inhibition).
For `CN(CCC#N)C(=O)C1CCc2c(sc3ncnc(Nc4ccc5[nH]c(=O)sc5c4)c23)C1` (racemic) [Example 48, (RS)-N-(2-cyanoethyl)-N-methyl-4-[(2-oxo-2,3-dihydro-1,3-benzothiazol-6-yl)amino]-5,6,7,8-tetrahydro[1]benzothieno[2,3-d]pyrimidine-7-carboxamide], the pIC50 was 7.19.
With `COc1cc2[nH]c(=O)sc2cc1Nc1ncnc2sc3c(c12)CCC(C(=O)N(CCN(C)C)Cc1ccccc1)C3` (racemic) [Example 92, (RS)—N-Benzyl-N-[2-(dimethylamino)ethyl]-4-[(5-methoxy-2-oxo-2,3-dihydro-1,3-benzothiazol-6-yl)amino]-5,6,7,8-tetrahydro[1]benzothieno[2,3-d]pyrimidine-7-carboxamide] the pIC50 was 9.22.
In the case of `COCC1CCCN1C(=O)C1CCc2c(sc3ncnc(Nc4ccc5[nH]c(=O)sc5c4)c23)C1` (racemic) [Example 77, 6-{[(7RS)-7-{[(2RS)-2-(methoxymethyl)pyrrolidin-1-yl]carbonyl}-5,6,7,8-tetrahydro[1]benzothieno[2,3-d]pyrimidin-4-yl]amino}-1,3-benzothiazol-2(3H)-one], the pIC50 was 7.39.
`O=C(C1CCc2c(sc3ncnc(Nc4ccc5[nH]c(=O)sc5c4)c23)C1)N1CC(N2CCCCC2)C1` (racemic) [Example 79, (RS)-6-[(7-{[3-(piperidin-1-yl)azetidin-1-yl]carbonyl}-5,6,7,8-tetrahydro[1]benzothieno[2,3-d]pyrimidin-4-yl)amino]-1,3-benzothiazol-2(3H)-one] was tested, and the pIC50 was 7.42.
Compound `CC(C)(C)OC(=O)N[C@@H](CCO)C(=O)NCC1CCc2c(sc3ncnc(Nc4ccc5[nH]c(=O)sc5c4)c23)C1` (mixture of isomers) [Example 27, tert-Butyl {(2R)-4-hydroxy-1-oxo-1-[({(7RS)-4-[(2-oxo-2,3-dihydro-1,3-benzothiazol-6-yl)amino]-5,6,7,8-tetrahydro[1]benzothieno[2,3-d]pyrimidin-7-yl}methyl)amino]butan-2-yl}carbamate] has a pIC50 of 7.00.
With `CC(O)C(=O)NCC1CCc2c(sc3ncnc(Nc4ccc5[nH]c(=O)sc5c4)c23)C1` (racemic) [Example 26, (2RS)-2-Hydroxy-N-({(7RS)-4-[(2-oxo-2,3-dihydro-1,3-benzothiazol-6-yl)amino]-5,6,7,8-tetrahydro[1]benzothieno[2,3-d]pyrimidin-7-yl}methyl)propanamide] the pIC50 was 7.08.
`O=C(O)C1CCc2c(sc3ncnc(Nc4ccc5[nH]c(=O)sc5c4)c23)C1` (racemic) [Example 2, (RS)-4-[(2-Oxo-2,3-dihydro-1,3-benzothiazol-6-yl)amino]-5,6,7,8-tetrahydro[1]benzothieno[2,3-d]pyrimidine-7-carboxylic acid] gave a pIC50 of 6.97.
With `CCCN(CCOC)C(=O)C1CCc2c(sc3ncnc(Nc4cc5sc(=O)[nH]c5cc4OC)c23)C1` (racemic) [Example 87, (RS)—N-(2-Methoxyethyl)-4-[(5-methoxy-2-oxo-2,3-dihydro-1,3-benzothiazol-6-yl)amino]-N-propyl-5,6,7,8-tetrahydro[1]benzothieno[2,3-d]pyrimidine-7-carboxamide] the pIC50 was 8.70.
In the case of `O=C(C1CCc2c(sc3ncnc(Nc4ccc5[nH]c(=O)sc5c4)c23)C1)N1CCCC(O)C1` (racemic) [Example 53, 6-{[(7RS)-7-{[(3RS)-3-hydroxypiperidin-1-yl]carbonyl}-5,6,7,8-tetrahydro[1]benzothieno[2,3-d]pyrimidin-4-yl]amino}-1,3-benzothiazol-2(3H)-one], the pIC50 was 7.28.
In the case of `N#CC1CCCN(C(=O)C2CCc3c(sc4ncnc(Nc5ccc6[nH]c(=O)sc6c5)c34)C2)C1` (racemic) [Example 75, (3RS)-1-({(7RS)-4-[(2-oxo-2,3-dihydro-1,3-benzothiazol-6-yl)amino]-5,6,7,8-tetrahydro[1]benzothieno[2,3-d]pyrimidin-7-yl}carbonyl)piperidine-3-carbonitrile], the pIC50 was 7.49.
For `N#CC1CN(C(=O)C2CCc3c(sc4ncnc(Nc5ccc6[nH]c(=O)sc6c5)c34)C2)C1` (racemic) [Example 91, (RS)-1-({4-[(2-Oxo-2,3-dihydro-1,3-benzothiazol-6-yl)amino]-5,6,7,8-tetrahydro[1]benzothieno[2,3-d]pyrimidin-7-yl}carbonyl)azetidine-3-carbonitrile], the pIC50 was 7.41.
In the case of `O=C(NCc1cccc(C(F)(F)F)c1)C1CCc2c(sc3ncnc(Nc4ccc5[nH]c(=O)sc5c4)c23)C1` (racemic) [Example 10, (RS)-4-[(2-Oxo-2,3-dihydro-1,3-benzothiazol-6-yl)amino]-N-[3-(trifluoromethyl)benzyl]-5,6,7,8-tetrahydro[1]benzothieno[2,3-d]pyrimidine-7-carboxamide], the pIC50 was 7.96.
Work on `O=C(C1CCc2c(sc3ncnc(Nc4ccc5[nH]c(=O)sc5c4)c23)C1)N1CC2(COC2)C1` (racemic) [Example 83, (RS)-6-{[7-(2-oxa-6-azaspiro[3.3]hept-6-ylcarbonyl)-5,6,7,8-tetrahydro[1]benzothieno[2,3-d]pyrimidin-4-yl]amino}-1,3-benzothiazol-2(3H)-one] yielded a pIC50 of 7.28.
Compound `CN1CC2CC1CN2C(=O)C1CCc2c(sc3ncnc(Nc4ccc5[nH]c(=O)sc5c4)c23)C1` (racemic) [Example 74, 6-{[(7RS)-7-{[(1RS,4RS)-5-methyl-2,5-diazabicyclo[2.2.1]hept-2-yl]carbonyl}-5,6,7,8-tetrahydro[1]benzothieno[2,3-d]pyrimidin-4-yl]amino}-1,3-benzothiazol-2(3H)-one] has a pIC50 of 7.33.
In the case of `CC(C)CN(C)C(=O)C1CCc2c(sc3ncnc(Nc4ccc5[nH]c(=O)sc5c4)c23)C1` (racemic) [Example 58, (RS)-N-isobutyl-N-methyl-4-[(2-oxo-2,3-dihydro-1,3-benzothiazol-6-yl)amino]-5,6,7,8-tetrahydro[1]benzothieno[2,3-d]pyrimidine-7-carboxamide], the pIC50 was 7.20.
With `N#CC1CCN(C(=O)C2CCc3c(sc4ncnc(Nc5ccc6[nH]c(=O)sc6c5)c34)C2)CC1` (racemic) [Example 76, (RS)-1-({4-[(2-oxo-2,3-dihydro-1,3-benzothiazol-6-yl)amino]-5,6,7,8-tetrahydro[1]benzothieno[2,3-d]pyrimidin-7-yl}carbonyl)piperidine-4-carbonitrile] the pIC50 was 7.27.
Work on `CN(C)CCN(Cc1ccccc1)C(=O)C1CCc2c(sc3ncnc(Nc4ccc5[nH]c(=O)sc5c4)c23)C1` (racemic) [Example 36, (RS)-N-benzyl-N-[2-(dimethylamino)ethyl]-4-[(2-oxo-2,3-dihydro-1,3-benzothiazol-6-yl)amino]-5,6,7,8-tetrahydro[1]benzothieno[2,3-d]pyrimidine-7-carboxamide] yielded a pIC50 of 8.05.
`O=C(C1CCc2c(sc3ncnc(Nc4ccc5[nH]c(=O)sc5c4)c23)C1)N1CCC(O)C1` (racemic) [Example 51, 6-{[(7RS)-7-{[(3RS)-3-hydroxypyrrolidin-1-yl]carbonyl}-5,6,7,8-tetrahydro[1]benzothieno[2,3-d]pyrimidin-4-yl]amino}-1,3-benzothiazol-2(3H)-one] showed a pIC50 of 7.12.
For `O=C(C1CCc2c(sc3ncnc(Nc4ccc5[nH]c(=O)sc5c4)c23)C1)N1CCC1` (racemic) [Example 45, (RS)-6-{[7-(azetidin-1-ylcarbonyl)-5,6,7,8-tetrahydro[1]benzothieno[2,3-d]pyrimidin-4-yl]amino}-1,3-benzothiazol-2(3H)-one], the pIC50 was 7.15.
For `O=C(C1CCc2c(sc3ncnc(Nc4ccc5[nH]c(=O)sc5c4)c23)C1)N1CCN(CC2CC2)CC1` (racemic) [Example 78, (RS)-6-[(7-{[4-(cyclopropylmethyl)piperazin-1-yl]carbonyl}-5,6,7,8-tetrahydro[1]benzothieno[2,3-d]pyrimidin-4-yl)amino]-1,3-benzothiazol-2(3H)-one], the pIC50 was 7.47.
`CC(C)S(=O)(=O)NCC1CCc2c(sc3ncnc(Nc4ccc5[nH]c(=O)sc5c4)c23)C1` (racemic) [Example 28, (RS)—N-({4-[(2-Oxo-2,3-dihydro-1,3-benzothiazol-6-yl)amino]-5,6,7,8-tetrahydro[1]benzothieno[2,3-d]pyrimidin-7-yl}methyl)propane-2-sulfonamide] was tested, and the pIC50 was 6.86.
